The structures appear in SMILES notation. Where two headings read alike, the source gives them in different places.

The target in the experiment is T1, adenylate kinase (AK), wild-type (WT) (Escherichia coli, UniProt P69441).
T1 construct: gene adk; purified recombinant, details only in ESI
Nature of the experiment: microscale thermophoresis. In kind it is binding.

T1 sequence (P69441 whole entry): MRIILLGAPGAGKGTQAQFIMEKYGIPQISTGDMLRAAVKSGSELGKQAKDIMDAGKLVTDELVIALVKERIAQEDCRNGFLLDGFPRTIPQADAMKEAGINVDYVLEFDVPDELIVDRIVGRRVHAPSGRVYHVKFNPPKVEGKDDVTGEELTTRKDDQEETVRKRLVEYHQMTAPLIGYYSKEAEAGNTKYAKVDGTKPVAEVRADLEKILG

For the compound `Nc1ncnc2c1ncn2[C@@H]1O[C@H](COP(=O)(O)O)[C@@H](O)[C@H]1O` [AMP], for the setting “read-out: Kd (AMP)”, the Kd was 332 ± 40 µM.

As to `Nc1ncnc2c1ncn2[C@@H]1O[C@H](COP(=O)(O)OP(=O)(O)OP(=O)(O)O)[C@@H](O)[C@H]1O` [ATP], the Kd (read-out: WT) came out at 159 ± 17 µM.
